From patent publication US20240358721A1, “GASDERMIN-D INHIBITORS AND USES THEREOF FOR TREATING PULMONARY VASO-OCCLUSION” (UNIVERSITY OF PITTSBURGH-OF THE COMMONWEALTH SYSTEM OF …, priority 2021, published 2024) come the findings set out here.

The assay relates to SCD-Selp−/− mice. The assay can be described thus: qFILM detection of circulating NETs arriving in the lung microcirculation, SCD-Selp−/− mice. It counts as in vivo, mouse. Particulars: IV 10 μmole/kg oxy-Hb with 10 mg/kg inhibitor vs oxy-Hb alone, significant. As to the method:
(FIG. 5A) Experimental scheme: SCD or SCD-Selp^−/− mice were IV administered 10 μmole/kg oxy-Hb (10 oxy-Hb) without or with 10 mg/kg GSDMD inhibitors LDC75591 or Disulfiram. In FIGS. 5C-5D, venous blood was processed to generate PPP and cNETs detected in PPP using Imaging Flow Cytometry. Imaging Flow Cytometry data was quantified to estimate concentration of cNETs (#cNETs/μl of plasma). In FIGS. 5B, and 5E-5F, quantitative fluorescence intravital lung microscopy (qFILM) was used to detect arrival of circulating NETs (cNETs) within the lung microcirculation. Number of cNETs entering per FOV over a 1-minute duration (#cNETs/FOV/min) were quantified. In FIGS. 5G-5J, qFILM was used to assess the absence or presence of pulmonary vaso-occlusion using the experimental strategy described in FIG. 1A. Pulmonary vaso-occlusions (PVOs) were compared between treatment groups using following two parameters: Number of PVOs per Field of View (#PVOs/FOV) and number of large PVOs (with area>1000 μm^2) per FOV. […]
Quantitative fluorescence intravital lung microscopy (qFILM) has been used widely for in vivo assessment of pulmonary vasoocclusion in mice with SCD [Bennewitz M F et al., (2017); Vats R, Brzoska T, Bennewitz M F, et al. (2020); Vats R, Tutuncuoglu E, Pradhan-Sundd T, Tejero J, Shaw G D, Sundd P. (2020); Bennewitz M F, Tutuncuoglu E, Gudapati S, et al. (2020)] […]

As to `COc1ccccc1-c1cc2n(n1)Cc1ccc(NC(C)=O)cc1OC2` [LDC7559], the “#cNETs/FOV/min in the lung, less than 10 oxy-Hb alone” value stood at 4 folds.
